Legend:
[1] = biological target: T1, Human FXIa (Homo sapiens, UniProt P03951); experiment: Determination of the % Inhibition for FXIa (IC50, fluorogenic substrate Z-Gly-Pro-Arg-AFC); format: biochemical; conditions: Selectivity, Human FXIa (Enzyme Research Laboratories), 25° C.
T1 construct: purchased Enzyme Research Laboratories
Method: Determination of the % Inhibition for FXIa
FXIa inhibitory activity in vitro was determined using standard published methods (see e.g. Johansen et al., Int. J. Tiss. Reac. 1986, 8, 185; Shori et al., Biochem. Pharmacol., 1992, 43, 1209; Stürzebecher et al., Biol. Chem. Hoppe-Seyler, 1992, 373, 1025). Human FXIa (Enzyme Research Laboratories) was incubated at 25° C. with the fluorogenic substrate Z-Gly-Pro-Arg-AFC and various concentrations of the test compound. Residual enzyme activity (initial rate of reaction) was determined by measuring the change in fluorescence at 410 nm and the IC50 value for the test compound was determined.

[2] = biological target: T2, Human Factor XIIa (Homo sapiens, UniProt P00748); experiment: Determination of the % Inhibition for FXIIa (IC50, fluorogenic substrate H-DPro-Phe-Arg-AFC); format: biochemical; conditions: Human Factor XIIa (Enzyme Research Laboratories), 25° C.
T2 construct: purchased Enzyme Research Laboratories
T2 sequence (P00748 373-615 limits assumed): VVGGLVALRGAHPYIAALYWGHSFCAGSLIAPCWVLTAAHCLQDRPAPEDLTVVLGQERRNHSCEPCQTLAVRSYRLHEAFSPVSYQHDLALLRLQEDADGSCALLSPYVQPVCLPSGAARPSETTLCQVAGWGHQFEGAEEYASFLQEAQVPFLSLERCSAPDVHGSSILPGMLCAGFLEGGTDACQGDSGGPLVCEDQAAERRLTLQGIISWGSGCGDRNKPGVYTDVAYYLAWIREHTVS
Method: Determination of the % Inhibition for FXIIa
Factor XIIa inhibitory activity in vitro was determined using standard published methods (see e.g. Shori et al., Biochem. Pharmacol., 1992,43, 1209; Baeriswyl et al., ACS Chem. Biol., 2015, 10 (8) 1861; Bouckaert et al., European Journal of Medicinal Chemistry 110 (2016) 181). Human Factor XIIa (Enzyme Research Laboratories) was incubated at 25° C. with the fluorogenic substrate H-DPro-Phe-Arg-AFC and various concentrations of the test compound. Residual enzyme activity (initial rate of reaction) was determined by measuring the change in […] at 410 nm and the IC50 value for the test compound was determined.

T1 sequence (P03951 388-625 limits assumed): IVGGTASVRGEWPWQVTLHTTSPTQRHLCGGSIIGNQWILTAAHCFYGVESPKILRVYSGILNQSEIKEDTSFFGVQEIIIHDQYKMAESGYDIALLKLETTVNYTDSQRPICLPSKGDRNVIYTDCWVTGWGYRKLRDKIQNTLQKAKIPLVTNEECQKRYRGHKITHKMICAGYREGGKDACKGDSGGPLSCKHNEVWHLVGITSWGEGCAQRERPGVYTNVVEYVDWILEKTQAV
T1 sequence (P03951 19-387 partner limits assumed): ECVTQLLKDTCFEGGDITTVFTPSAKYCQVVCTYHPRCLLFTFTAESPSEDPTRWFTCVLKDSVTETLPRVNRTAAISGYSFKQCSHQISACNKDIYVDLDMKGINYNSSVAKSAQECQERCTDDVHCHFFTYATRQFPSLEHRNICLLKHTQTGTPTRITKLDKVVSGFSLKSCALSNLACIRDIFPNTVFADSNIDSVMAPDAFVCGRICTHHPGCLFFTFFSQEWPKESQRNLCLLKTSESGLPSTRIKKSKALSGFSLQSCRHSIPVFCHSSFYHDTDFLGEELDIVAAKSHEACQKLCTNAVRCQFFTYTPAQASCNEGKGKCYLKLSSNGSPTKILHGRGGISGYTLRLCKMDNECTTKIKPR

IC50 [1] [µM]	IC50 [2] [µM]	Compound
36.4	1 to 3	CN1CCC(Oc2ccc(NCc3ccc4c(N)nccc4c3)nc2)CC1 [Example 18.01, 6-(((5-((1-Methylpiperidin-4-yl)oxy)pyridin-2-yl)amino)methyl)isoquinolin-1-amine]
–	10 to 40	CN1CCC(Oc2cnc(NCc3ccc4c(N)nccc4c3)nc2)CC1 [Example 18.02, 6-[({5-[(1-Methylpiperidin-4-yl)oxy]pyrimidin-2-yl}amino)methyl]isoquinolin-1-amine]
> 40	< 1	CN1CCC(OCc2ccc(NCc3ccc4c(N)nccc4c3)nc2)CC1 [Example 18.03, 6-(((5-(((1-Methylpiperidin-4-yl)oxy)methyl)pyridin-2-yl)amino)methyl)isoquinolin-1-amine]
> 40	< 1	CN1CCC(COc2ccc(NCc3ccc4c(N)nccc4c3)nc2)CC1 [Example 18.04, 6-(((5-((1-Methylpiperidin-4-yl)methoxy)pyridin-2-yl)amino)methyl)isoquinolin-1-amine]
19.9	< 1	CN1CCC(Oc2cnc(NCc3ccc4c(N)nccc4c3)cn2)CC1 [Example 18.05]
–	1 to 3	CN1CCC(Oc2ccc(NCc3ccc4c(N)nccc4c3)nn2)CC1 [Example 18.06]
–	1 to 3	Nc1nccc2cc(CNc3ccc(OC4CCNCC4)cc3)ccc12 [Example 18.07]
> 40	< 1	CN1CCC(Oc2ccc(NCc3ccc4c(N)nccc4c3)cc2)CC1 [Example 18.08, 6-(((4-((1-Methylpiperidin-4-yl)oxy)phenyl)amino)methyl)isoquinolin-1-amine]
–	10 to 40	Nc1nccc2cc(CNc3ccc(OCCN4CCOCC4)cn3)ccc12 [Example 18.09, 6-(((5-(2-Morpholinoethoxy)pyridin-2-yl)amino)methyl)isoquinolin-1-amine]
24.8	< 1	CN1CCC(COc2cnc(NCc3ccc4c(N)nccc4c3)cn2)CC1 [Example 18.10, 6-(((5-((1-Methylpiperidin-4-yl)methoxy)pyrazin-2-yl)amino)methyl)isoquinolin-1-amine]
17.9	< 1	CN1CCC(COc2ccc(NCc3ccc4c(N)nccc4c3)cn2)CC1 [Example 18.11, 6-(((6-((1-Methylpiperidin-4-yl)methoxy)pyridin-3-yl)amino)methyl)isoquinolin-1-amine]
33.1	–	CN1CCC(COc2ccc(NCc3ccc4c(N)nccc4c3)cn2)CC1 [Example 18.12]
–	3 to 10	CN1CCC(CNC(=O)c2ccc(NCc3ccc4c(N)nccc4c3)nc2)CC1 [Example 18.13]
–	1 to 3	CN1CCCC(COc2ccc(NCc3ccc4c(N)nccc4c3)nc2)C1 (stereo not shown) [Example 18.14]
–	< 1	CN1CCC(COc2ccc(NCc3ccc4c(N)nccc4c3)cc2CO)CC1 [Example 18.15, (5-(((1-Aminoisoquinolin-6-yl)methyl)amino)-2-((1-methylpiperidin-4-yl)methoxy)phenyl)methanol]
–	10 to 40	CN1CCC(NC(=O)c2ccc(NCc3ccc4c(N)nccc4c3)nc2)CC1 [Example 18.16]

IC50 [1] [µM]	IC50 [2] [µM]	Compound
–	< 1	CN1CCC(COc2ccc(NCc3ccc4c(N)nccc4c3)cc2CCO)CC1 [Example 18.17]
–	< 1	CN1CCC(COc2ccc(NCc3ccc4c(N)nccc4c3)cc2)CC1 [Example 18.18, 6-(((4-((1-Methylpiperidin-4-yl)methoxy)phenyl)amino)methyl)isoquinolin-1-amine]
–	3 to 10	Nc1nccc2cc(CNc3ccc(COC4CCNCC4)cn3)ccc12 [Example 18.19, 6-(((5-((Piperidin-4-yloxy)methyl)pyridin-2-yl)amino)methyl)isoquinolin-1-amine]
–	3 to 10	CN1CCC(CNC(=O)c2cccc(NCc3ccc4c(N)nccc4c3)n2)CC1 [Example 18.201, 6-(((1-Aminoisoquinolin-6-yl)methyl)amino)-N-((1-methylpiperidin-4-yl)methyl)picolinamide]
> 40	< 1	CN1CCC(Oc2ccnc(NCc3ccc4c(N)nccc4c3)c2)CC1 [Example 18.202, 6-(((4-((1-methylpiperidin-4-yl)oxy)pyridin-2-yl)amino)methyl)isoquinolin-1-amine]
–	10 to 40	CN1CCC(Oc2cccc(NCc3ccc4c(N)nccc4c3)n2)CC1 [Example 18.203]
–	3 to 10	CN1CCC(NC(=O)c2ccnc(NCc3ccc4c(N)nccc4c3)c2)CC1 [Example 18.204, 2-(((1-Aminoisoquinolin-6-yl)methyl)amino)-N-(1-methylpiperidin-4-yl)isonicotinamide]
–	10 to 40	CN1CCN(C(=O)c2ccnc(NCc3ccc4c(N)nccc4c3)c2)CC1 [Example 18.205]
–	1 to 3	CN1CCC(OCc2ccnc(NCc3ccc4c(N)nccc4c3)c2)CC1 [Example 18.206, 6-(((4-(((1-Methylpiperidin-4-yl)oxy)methyl)pyridin-2-yl)amino)methyl)isoquinolin-1-amine]
–	10 to 40	CN1CCC(Oc2cncc(NCc3ccc4c(N)nccc4c3)n2)CC1 [Example 18.207, 6-(((6-((1-Methylpiperidin-4-yl)oxy)pyrazin-2-yl)amino)methyl)isoquinolin-1-amine]
–	10 to 40	Nc1nccc2cc(CNc3cc(OCCN4CCOCC4)ccn3)ccc12 [Example 18.208]
–	1 to 3	CN1CCC(Oc2cc(NCc3ccc4c(N)nccc4c3)ncn2)CC1 [Example 18.209]
–	1 to 3	CN1CCCC(Oc2ccnc(NCc3ccc4c(N)nccc4c3)c2)C1 (stereo not shown) [Example 18.210]
–	1 to 3	CN1CCC(Oc2cccc(NCc3ccc4c(N)nccc4c3)c2)CC1 [Example 18.211]
–	1 to 3	CN1CCC(Oc2cncc(NCc3ccc4c(N)nccc4c3)c2)CC1 [Example 18.212]
–	3 to 10	Nc1nccc2cc(CNc3cc(OC4CCNCC4)ccn3)ccc12 [Example 18.213, 6-(((4-(Piperidin-4-yloxy)pyridin-2-yl)amino)methyl)isoquinolin-1-amine]

— patent US20220363668A1, “ENZYME INHIBITORS” (KALVISTA PHARMACEUTICALS LIMITED, priority 2019, published 2022)
